Measurements from patent US8404670B2 (Sunovion Pharmaceuticals Inc., priority 2009, dated 2013).

Target: T1, human histamine H3 receptor (Homo sapiens, UniProt Q9Y5N1)
T1 construct: host or cells: cells expressing the human H3 receptor
Assay: H3 GTPγS assay (SPA method), histamine H3 in vitro assay
Type: biochemical
Details: GTPγ[35S] binding to membranes of cells expressing human H3; antagonist mode with R-γ-Me-Histamine at EC80 (30 nM); in one embodiment HCl salts tested; read-out: Potency (functional potency as indicated by IC50)

T1 sequence (Q9Y5N1 whole entry): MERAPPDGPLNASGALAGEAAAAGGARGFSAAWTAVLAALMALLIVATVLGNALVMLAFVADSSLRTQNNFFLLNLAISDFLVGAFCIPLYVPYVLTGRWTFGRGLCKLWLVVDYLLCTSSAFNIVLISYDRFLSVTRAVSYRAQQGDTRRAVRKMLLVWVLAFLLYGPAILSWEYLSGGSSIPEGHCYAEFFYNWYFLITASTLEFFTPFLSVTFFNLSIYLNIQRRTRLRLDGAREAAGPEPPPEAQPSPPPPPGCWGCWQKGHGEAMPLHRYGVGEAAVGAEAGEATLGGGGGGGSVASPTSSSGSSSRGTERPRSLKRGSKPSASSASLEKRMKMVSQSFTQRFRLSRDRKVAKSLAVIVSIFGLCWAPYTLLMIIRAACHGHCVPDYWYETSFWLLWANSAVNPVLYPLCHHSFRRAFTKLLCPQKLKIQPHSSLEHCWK

Row | IC50 | Compound
1 | ≤ 10 nM | Fc1ccc2c(c1)CN(c1ccc3c(c1)nc1n3CCN(C3CCC3)CC1)CC2 [Compound 177, 3-cyclobutyl-8-(7-fluoro-3,4-dihydroisoquinolin-2(1H)-yl)-2,3,4,5-tetrahydro-1H-benzo[4,5]imidazo[1,2-d][1,4]diazepine]
2 | ≤ 100 nM | NCc1ccc(-c2ccc3nc4n(c3c2)CCN(C2CCC2)CC4)cc1 [Compound 44]
3 | ≤ 10 nM | FC1(F)CCCN(Cc2ccc3c(c2)nc2n3CCN(C3CCC3)CC2)C1 [Compound 162, 3-cyclobutyl-8-((3,3-difluoropiperidin-1-yl)methyl)-2,3,4,5-tetrahydro-1H-benzo[4,5]imidazo[1,2-d][1,4]diazepine]
4 | ≤ 1000 nM | Brc1ccc2c(c1)nc1n2CCN(C2CCC2)CC1 [Compound 21]
5 | ≤ 100 nM | COc1cccc(-c2ccc3c(c2)nc2n3CCN(C3CCC3)CC2)n1 [Compound 137, 3-cyclobutyl-8-(6-methoxypyridin-2-yl)-2,3,4,5-tetrahydro-1H-benzo[4,5]imidazo[1,2-d][1,4]diazepine]
6 | ≤ 10 nM | CN1CCN(c2cncc(-c3ccc4c(c3)nc3n4CCN(C4CCC4)CC3)n2)CC1 [Compound 95, 3-cyclobutyl-9-(6-(4-methylpiperazin-1-yl)pyrazin-2-yl)-2,3,4,5-tetrahydro-1H-[1,4]diazepino[1,7-a]benzimidazole]
7 | ≤ 100 nM | c1cn(-c2ccc3c(c2)nc2n3CCN(C3CCC3)CC2)nn1 [Compound 150, 3-cyclobutyl-8-(1H-1,2,3-triazol-1-yl)-2,3,4,5-tetrahydro-1H-benzo[4,5]imidazo[1,2-d][1,4]diazepine]
8 | ≤ 10 nM | c1cc2c(cc1CN1CCOCC1)nc1n2CCN(C2CCC2)CC1 [Compound 74, 3-cyclobutyl-9-(morpholin-1-ylmethyl)-2,3,4,5-tetrahydro-1H-[1,4]diazepino[1,7-a]benzimidazole]
9 | ≤ 100 nM | c1cncc(-c2ccc3c(c2)nc2n3CCN(C3CCC3)CC2)c1 [Compound 115, 3-cyclobutyl-9-(pyridin-3-yl)-2,3,4,5-tetrahydro-1H-[1,4]diazepino[1,7-a]benzimidazole]
10 | ≤ 10 nM | CN1Cc2cc3nc4n(c3cc2C1)CCN(C1CCC1)CC4 [Compound 146, 8-cyclobutyl-2-methyl-1,2,3,6,7,8,9,10-octahydro-[1,4]diazepino[1′,7′:1,2]imidazo[4,5-f]isoindole]
11 | ≤ 10 nM | NCc1ccc(-c2ccc3c(c2)nc2n3CCN(C3CCC3)CC2)cc1 [Compound 1, 3-cyclobutyl-9-(4-(aminomethyl)phenyl)-2,3,4,5-tetrahydro-1H-[1.4]diazepino[1,7-a]benzimidazole]
12 | ≤ 10 nM | FC1CCCN(Cc2ccc3c(c2)nc2n3CCN(C3CCC3)CC2)C1 (stereo not drawn) [Compound 161, 3-cyclobutyl-8-((3-fluoropiperidin-1-yl)methyl)-2,3,4,5-tetrahydro-1H-benzo[4,5]imidazo[1,2-d][1,4]diazepine]
13 | ≤ 100 nM | c1cc(-c2ccc3c(c2)nc2n3CCN(C3CCC3)CC2)ncn1 [Compound 124, 3-cyclobutyl-8-(pyrimidin-4-yl)-2,3,4,5-tetrahydro-1H-benzo[4,5]imidazo[1,2-d][1,4]diazepine]
14 | ≤ 10 nM | Cc1nc2ccc(F)cc2n1-c1ccc2c(c1)nc1n2CCN(C2CCC2)CC1 [Compound 208, 3-cyclobutyl-8-(6-fluoro-2-methyl-1H-benzo[d]imidazol-1-yl)-2,3,4,5-tetrahydro-1H-benzo[4,5]imidazo[1,2-d][1,4]diazepine]
15 | ≥ 1000 nM | CN1CCC(N2CCc3nc4cc(-c5ccc(CN)cc5)ccc4n3CC2)CC1 [Compound 16]

Further lines, the compound ahead of its results:

Row | Compound | IC50
16 | c1cc2c(cc1N1CCN(C3CCOCC3)CC1)nc1n2CCN(C2CCC2)CC1 [Compound 103, 3-cyclobutyl-9-(4-(tetrahydro-2H-pyran-4-yl)piperazin-1-yl)-2,3,4,5-tetrahydro-1H-[1,4]diazepino[1,7-a]benzimidazole] | ≤ 10 nM
17 | c1ccc(N2CCN(c3ccc4c(c3)nc3n4CCN(C4CCC4)CC3)CC2)cc1 [Compound 229, 3-cyclobutyl-8-(4-phenylpiperazin-1-yl)-2,3,4,5-tetrahydro-1H-benzo[4,5]imidazo[1,2-d][1,4]diazepine] | ≤ 10 nM
18 | c1cc2c(cc1-c1cnc(N3CCCC3)cn1)nc1n2CCN(C2CCC2)CC1 [Compound 91] | ≤ 100 nM
19 | FC(F)(F)c1ccc(-c2ccc3c(c2)nc2n3CCN(C3CCC3)CC2)cc1 [Compound 213, 3-cyclobutyl-8-(4-(trifluoromethyl)phenyl)-2,3,4,5-tetrahydro-1H-benzo[4,5]imidazo[1,2-d][1,4]diazepine] | ≤ 100 nM
20 | c1cc(-c2ccc3c(c2)nc2n3CCN(C3CCC3)CC2)nc(N2CCCC2)n1 [Compound 131, 3-cyclobutyl-8-(2-(pyrrolidin-1-yl)pyrimidin-4-yl)-2,3,4,5-tetrahydro-1H-benzo[4,5]imidazo[1,2-d][1,4]diazepine] | ≤ 10 nM
21 | Cn1cc2ccc(-c3ccc4c(c3)nc3n4CCN(C4CCC4)CC3)cc2n1 [Compound 206, 3-cyclobutyl-8-(2-methyl-2H-indazol-6-yl)-2,3,4,5-tetrahydro-1H-benzo[4,5]imidazo[1,2-d][1,4]diazepine] | ≤ 100 nM
22 | c1cnc(Oc2ccc3c(c2)nc2n3CCN(C3CCC3)CC2)cn1 [Compound 51] | ≤ 100 nM
23 | Fc1ccc(CNc2ccc3c(c2)nc2n3CCN(C3CCC3)CC2)cc1 [Compound 62] | ≤ 100 nM
24 | c1cc2ncc(-c3ccc4c(c3)nc3n4CCN(C4CCC4)CC3)cc2[nH]1 [Compound 200, 3-cyclobutyl-8-(1H-pyrrolo[3,2-b]pyridin-6-yl)-2,3,4,5-tetrahydro-1H-benzo[4,5]imidazo[1,2-d][1,4]diazepine] | ≤ 10 nM
25 | Clc1ccc(-c2ccc3c(c2)nc2n3CCN(C3CCC3)CC2)cc1Cl [Compound 211, 3-cyclobutyl-8-(3,4-dichlorophenyl)-2,3,4,5-tetrahydro-1H-benzo[4,5]imidazo[1,2-d][1,4]diazepine] | ≤ 100 nM
26 | c1cnc(N2CCc3cc4nc5n(c4cc3C2)CCN(C2CCC2)CC5)cn1 [Compound 190, 9-cyclobutyl-2-(pyrazin-2-yl)-2,3,4,7,8,9,10,11-octahydro-1H-[1,4]diazepino[1′,7′:1,2]imidazo[4,5-g]isoquinoline] | ≤ 10 nM
27 | O=C(c1cnccn1)N1CCN(c2ccc3c(c2)nc2n3CCN(C3CCC3)CC2)CC1 [Compound 169, (4-(3-cyclobutyl-2,3,4,5-tetrahydro-1H-benzo[4,5]imidazo[1,2-d][1,4]diazepin-8-yl)piperazin-1-yl)(pyrazin-2-yl)methanone] | ≤ 100 nM
28 | Cc1nncn1-c1ccc2c(c1)nc1n2CCN(C2CCC2)CC1 [Compound 157, 3-cyclobutyl-8-(3-methyl-4H-1,2,4-triazol-4-yl)-2,3,4,5-tetrahydro-1H-benzo[4,5]imidazo[1,2-d][1,4]diazepine] | ≤ 100 nM
29 | CC(=O)N1CCc2c(ccc3c2nc2n3CCN(C3CCC3)CC2)C1 [Compound 188, 1-(10-cyclobutyl-9,10,11,12-tetrahydro-1H-[1,4]diazepino[1′,7′:1,2]imidazo[4,5-f]isoquinolin-3(2H,4H,8H)-yl)ethanone] | ≤ 1000 nM
30 | COc1ccnc(OCc2ccc3nc4n(c3c2)CCN(C2CCC2)CC4)n1 [Compound 111] | ≤ 1000 nM
